Values of other authors in patent US6476002B1 (priority 1997, dated 2002).

What was measured:
[1] = system: rats with collagen arthritis; details: reported by Peacock et al. 1992
wound healing = details: from literature / copending application

Compound: CO[C@@H]1[C@H](OC(=O)NC(=O)CCl)CC[C@]2(CO2)[C@H]1[C@@]1(C)O[C@@H]1CC=C(C)C [AGM-1470]
- joint swelling in rats with collagen arthritis [1]: reduces joint swelling
- effect on wound healing (wound healing): inhibits wound healing
